Laboratory results taken from US20170119726A1, “Stabilized Cabazitaxel Formulations” (Cipla (UK) Limited, priority 2015, published 2017).

What was measured:
[1] = Study 4: in-life observations (mortality, clinical signs, body weight); conditions: both treatment groups, 12 mg/kg IV on days 1, 7, 13, 19, nude mice
Procedure: (§1) DU145 cells (5×106) at their exponential growth phase were inoculated subcutaneously on the dorsal right flank in athymic female mice. […] Animals in the vehicle control group received 5 w/v % dextrose solution. Growth of prostate xenografts (tumor volume) and whole body weights were recorded twice weekly (on days 1, 3, 5, 8, 10, 15, 17, 19) during treatment period. Animals were also monitored for clinical signs and mortality everyday throughout the study. On the day of sacrifice (day 19), blood and tumors were collected from set of animals (4 animals in each time point) at stipulated time points (1, 2, 3, and 4 h post-dose). At the end of blood collection, animals were humanely euthanized by cervical dislocation and tumor in toto was harvested from all the animals, transferred to pre-labeled microcentrifuge tubes before flash freezing in liquid nitrogen.

[2] = mouse, in vivo, iv, 12 mg/kg
Procedure: as §1

Compound: CO[C@H]1C(=O)[C@]2(C)[C@@H](OC)C[C@H]3OC[C@@]3(OC(C)=O)[C@H]2[C@H](OC(=O)c2ccccc2)[C@]2(O)C[C@H](OC(=O)[C@H](O)[C@@H](NC(=O)OC(C)(C)C)c3ccccc3)C(C)=C1C2(C)C [Cabazitaxel, (2α,5β,7β,10β, 13α)-4-acetoxy-13-({(2R,3S)-3[(tertbutoxycarbonyl)amino]-2-hydroxy-3-phenylpropanoyl}-oxy)-1-hydroxy-7,10-dimethoxy-9-oxo-5,20-epoxytax-11-en-2-yl benzoate]
- mortality [1]: no mortality was observed
- tolerability [2]: well tolerated
